This passage reports GI50 and TGI results from PubChem BioAssay (NCI).

“And” between values parts separate entries of the source, which are not always exact repeats. Equal entries are not always repeated.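 Test compounds were applied to cells in 96-well plates for 48 hours at 5 doses. GI50 marks 50% less growth. At the TGI there is no net growth.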

Among the test systems are 786-0 renal; SK-MEL-2 melanoma; NCI-H460 lung; SF-539 CNS; M14 melanoma; HCT-116 colon; NCI-H522 lung; NCI-H23 lung; LOX IMVI melanoma; KM12 colon.
Holding throughout (assay): NCI-60 cell line screen, 48 h

As to `COc1ccc(-c2cnc(-c3ccncc3-c3cccc(OC)c3)o2)cc1`, the GI50 with 786-0 renal was 0.0627 µM; in the test on SK-MEL-2 melanoma, 0.0397 µM; in the test on NCI-H460 lung, 0.0365 µM; in the test with SF-539 CNS, 0.0268 µM; with M14 melanoma, 0.0304 µM; in the test on HCT-116 colon, 0.0375 µM. Besides, the GI50 in the test on NCI-H522 lung is 0.019 µM; in the test with NCI-H23 lung it was 0.0383 µM; in the test with LOX IMVI melanoma it was 0.0599 µM; with KM12 colon, 0.0471 µM. Also, the TGI is 15 µM in the test with 786-0 renal; 15.2 µM in the test on SK-MEL-2 melanoma; 4.03 µM in the test with NCI-H460 lung; 0.0776 µM in the test with SF-539 CNS; 14.2 µM with M14 melanoma; 11.8 µM in the test with HCT-116 colon. For the same compound, the TGI in the test on NCI-H522 lung amounted to 0.0615 µM; in the test with NCI-H23 lung it was 13 µM; with LOX IMVI melanoma, 15.5 µM; in the test on KM12 colon it was 1.82 µM.

`CC(=O)C1(C(=O)C(=[N+]=[N-])S(=O)(=O)c2ccccc2)CC1`: the TGI in the test with 786-0 renal, with SK-MEL-2 melanoma, with NCI-H460 lung, in the test on SF-539 CNS, in the test on M14 melanoma and in the test on HCT-116 colon was greater than 100 µM each time. Moreover, the TGI in the test with NCI-H522 lung, in the test with NCI-H23 lung, in the test on LOX IMVI melanoma and with KM12 colon was greater than 100 µM in each case.

Consider `COc1cccc(-c2cc(=O)c3cc(N4CCN(C)CC4)ccc3[nH]2)c1`, for which the GI50 with 786-0 renal is 5.28 µM; in the test on SK-MEL-2 melanoma it was 3.16 µM; in the test on SF-539 CNS it was 1.5 µM; in the test on M14 melanoma, 2.61 µM; in the test with HCT-116 colon, 0.92 µM; with NCI-H522 lung, 1.02 µM. The GI50 is 3.45 µM in the test on NCI-H23 lung, 2.11 µM in the test on LOX IMVI melanoma and 1.35 µM with KM12 colon. The TGI is greater than 100 µM in the test with 786-0 renal; greater than 100 µM with SK-MEL-2 melanoma; greater than 100 µM with NCI-H460 lung; 2.36 µM and 7.13 µM in the test on SF-539 CNS; greater than 100 µM in the test on M14 melanoma; greater than 100 µM in the test on HCT-116 colon. In addition, the TGI with NCI-H522 lung was 4.28 µM and 3.79 µM; in the test with KM12 colon it was 4.81 µM and 45.4 µM.
